From ChEMBL document CHEMBL1201862, “PubChem BioAssay data set” (2004)
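Interpolation was linear, between the two tested concentrations surrounding the appropriate level; five concentrations were tested over 48 hours in 96-well plates. The concentration for 50% growth inhibition is given as GI50.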 Calls of active or inactive are those of the source. No stated cut-off is given here; in the data, active = GI50 up to about 1.1 µM and inactive = higher.

Experiments:
Experiment in all cases: DTP human tumour cell line panel, 48 h
[1] = system: OVCAR-8
[2] = system: RPMI-8226
[3] = system: A549
[4] = system: CAKI-1
[5] = system: M19-MEL
[6] = system: NCI-H23
[7] = system: IGROV-1
[8] = system: HOP-92
[9] = system: ACHN
[10] = system: UO-31
[11] = system: OVCAR-4
[12] = system: M14
[13] = system: UACC-62
[14] = system: SNB-75
[15] = system: HL-60
[16] = system: MOLT-4
[17] = system: SK-OV-3

SMILES | GI50 [1] | GI50 [2] | GI50 [3] | GI50 [4] | GI50 [5] | GI50 [6] | GI50 [7] | GI50 [8] | GI50 [9] | GI50 [10] | GI50 [11] | GI50 [12] | GI50 [13] | GI50 [14] | GI50 [15] | GI50 [16] | GI50 [17]
CC1(C)CC23C(=O)N(c4ccccc4)C(Nc4ccccc4)=NC2=CC(C#N)=C(C#N)C3O1 (stereo not drawn) | 99.5 µM (inactive) | 30.4 µM (inactive) | 28.1 µM (inactive) | 23.2 µM (inactive) | 94.6 µM (inactive) | 34.9 µM (inactive) | > 100 µM (inactive) | 11.2 µM (inactive) | 28.8 µM (inactive) | 18.6 µM (inactive) | 22.6 µM (inactive) | > 100 µM (inactive) | 96.4 µM (inactive) | 48.8 µM (inactive) | 27.4 µM (inactive) | 29.3 µM (inactive) | –
COc1ccccc1-n1c(NN)nc2ccc(Br)cc2c1=O | 34 µM (inactive) | 41.2 µM (inactive) | 45.4 µM (inactive) | 48.1 µM (inactive) | 42.5 µM (inactive) | 28.1 µM (inactive) | 38.2 µM (inactive) | – | 36.5 µM (inactive) | 35.1 µM (inactive) | > 100 µM (inactive) | 40.6 µM (inactive) | 36.6 µM (inactive) | 34.1 µM (inactive) | 21.3 µM (inactive) | 26.2 µM (inactive) | 26.5 µM (inactive)
CC1=C(O)C(=O)C2C(=O)C1C(C)C2c1ccccc1 (stereo not drawn) | > 100 µM (inactive) | > 100 µM (inactive) | > 100 µM (inactive) | > 100 µM (inactive) | > 100 µM (inactive) | > 100 µM (inactive) | > 100 µM (inactive) | > 100 µM (inactive) | > 100 µM (inactive) | > 100 µM (inactive) | > 100 µM (inactive) | > 100 µM (inactive) | > 100 µM (inactive) | > 100 µM (inactive) | – | > 100 µM (inactive) | > 100 µM (inactive)
O=C(O)C1CCc2nnc(-c3ccccc3)n21 (stereo not drawn) | > 100 µM (inactive) | > 100 µM (inactive) | > 100 µM (inactive) | > 100 µM (inactive) | > 100 µM (inactive) | – | > 100 µM (inactive) | – | > 100 µM (inactive) | > 100 µM (inactive) | > 100 µM (inactive) | > 100 µM (inactive) | > 100 µM (inactive) | > 100 µM (inactive) | > 100 µM (inactive) | > 100 µM (inactive) | > 100 µM (inactive)
N/C=N/S(=O)(=O)c1ccc(NC(=O)COC(=O)c2cccc3c(=O)c4ccccc4[nH]c23)cc1 | > 100 µM (inactive) | > 100 µM (inactive) | > 100 µM (inactive) | – | > 100 µM (inactive) | > 100 µM (inactive) | > 100 µM (inactive) | – | > 100 µM (inactive) | > 100 µM (inactive) | – | 67.8 µM (inactive) | > 100 µM (inactive) | > 100 µM (inactive) | > 100 µM (inactive) | > 100 µM (inactive) | > 100 µM (inactive)
O=S(O)CCCCSSCCCCSSCCCCS(=O)O | 18.9 µM (inactive) | – | 34 µM (inactive) | 95.3 µM (inactive) | 5.53 µM (inactive) | 36 µM (inactive) | > 100 µM (inactive) | – | 40.9 µM (inactive) | 29 µM (inactive) | 16 µM (inactive) | 11.2 µM (inactive) | 12.1 µM (inactive) | 6.31 µM (inactive) | 3.25 µM (inactive) | 0.851 µM (active) | > 100 µM (inactive)
COc1ccc2ccccc2c1C1OC(=O)c2ccccc21 (stereo not drawn) | > 100 µM (inactive) | > 100 µM (inactive) | 96.2 µM (inactive) | > 100 µM (inactive) | > 100 µM (inactive) | > 100 µM (inactive) | > 100 µM (inactive) | > 100 µM (inactive) | > 100 µM (inactive) | 68.2 µM (inactive) | 82.8 µM (inactive) | > 100 µM (inactive) | 80 µM (inactive) | – | 44.3 µM (inactive) | 44.2 µM (inactive) | > 100 µM (inactive)
CS(=O)(=O)CC1=Nc2nnc(CCCCCCCc3nnc4n3C(=O)C(CS(C)(=O)=O)=N4)n2C1=O | > 100 µM (inactive) | > 100 µM (inactive) | > 100 µM (inactive) | > 100 µM (inactive) | > 100 µM (inactive) | > 100 µM (inactive) | > 100 µM (inactive) | > 100 µM (inactive) | > 100 µM (inactive) | > 100 µM (inactive) | – | > 100 µM (inactive) | > 100 µM (inactive) | > 100 µM (inactive) | > 100 µM (inactive) | > 100 µM (inactive) | > 100 µM (inactive)
Cc1ccccc1NC(=O)C(=O)CC(=O)c1c(C)[n+]([O-])c2ccccc2[n+]1[O-] | > 100 µM (inactive) | > 100 µM (inactive) | > 100 µM (inactive) | > 100 µM (inactive) | > 100 µM (inactive) | > 100 µM (inactive) | > 100 µM (inactive) | – | > 100 µM (inactive) | > 100 µM (inactive) | 76.9 µM (inactive) | > 100 µM (inactive) | > 100 µM (inactive) | 40 µM (inactive) | – | – | > 100 µM (inactive)
